The values that follow come from patent publication US10399976B2, “Dihydropyrrolopyridine inhibitors of ROR-gamma” (Vitae Pharmaceuticals, LLC, priority 2014, dated 2019).

The target in test [1] is recombinant RORγ Ligand Binding Domain (LBD) (Homo sapiens (Human), UniProt P51449). The test is described as follows: Radio-Ligand RORγ Binding Assay (Assay 1). To be noted: cell-free competition with 25-hydroxy [26,27-3H]-cholesterol, SPA; read-out: RORγ Binding Ki Range*. How it is done: Radio-Ligand ROR ? Binding Assay (Assay 1)
Sequence of recombinant RORγ Ligand Binding Domain (LBD) (P51449 269-508): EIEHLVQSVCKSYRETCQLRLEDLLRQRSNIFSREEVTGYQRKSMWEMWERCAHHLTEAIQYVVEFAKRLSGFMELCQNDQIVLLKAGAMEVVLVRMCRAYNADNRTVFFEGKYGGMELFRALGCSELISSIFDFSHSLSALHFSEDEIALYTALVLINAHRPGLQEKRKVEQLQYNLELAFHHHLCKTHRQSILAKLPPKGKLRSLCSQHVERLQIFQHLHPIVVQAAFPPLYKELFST
Compounds of the present invention were tested for ability to bind to ROR ? in a cell-free competition assay with commercially available radio-ligand (RL), 25-hydroxy [26,27-^3H]-cholesterol (PerkinElmer, Cat. # NET674250UC), for a ligand binding site on a recombinant ROR ? Ligand Binding Domain (LBD) protein expressed as a 6×His-Glutathione-S-Transferase (GST) fusion. […] The plate was shaken at 700 rpm for 20 min and incubated for 10 min at rt, after which 40 μL of poly-Lys YSi SPA beads (PerkinElmer, Cat. # RPNQ0010) were added to achieve 50 μg of the beads per well. The plate was incubated on an orbital shaker for 20 min and then for 10 min without agitation at rt. SPA signal for tritium beta radiation was registered on PerkinElmer Microbeta plate reader. […] The percent inhibition vs. concentration data were fit into a four-parameter model, and IC50 values were calculated from the fit as the concentrations corresponding to the inflection points on the dose-response curves.

Test [2] addresses full-length RORγt in Jurkat cells (Homo sapiens (Human), UniProt P51449). Kind of test: RORγt 5×RORE Assay in Jurkat Cells (Assay 2). It is filed as cell-based. The conditions noted are these: Nanoluc luciferase reporter, 16-18 hrs, read-out: RORγt5X IC50 Range*. How it is done: [formula] ROR ? t 5×RORE Assay in Jurkat Cells (Assay 2)
Compounds of the present invention were tested for ROR ? inverse agonist activity in a cell-based, transcriptional activity assay. […] (Promega, Cat. # N1021) using KpnI and HindIII restriction sites. […] Luciferase activity in the conditioned supernatants was determined with NanoGlo® assay reagents (Promega, Cat.# N1130).
Background: Reporter assays use an easily measured gene product as a stand-in for the process of interest.

Sequence of full-length RORγt in Jurkat cells (P51449 other isoform, or with tags, fused parts or gaps): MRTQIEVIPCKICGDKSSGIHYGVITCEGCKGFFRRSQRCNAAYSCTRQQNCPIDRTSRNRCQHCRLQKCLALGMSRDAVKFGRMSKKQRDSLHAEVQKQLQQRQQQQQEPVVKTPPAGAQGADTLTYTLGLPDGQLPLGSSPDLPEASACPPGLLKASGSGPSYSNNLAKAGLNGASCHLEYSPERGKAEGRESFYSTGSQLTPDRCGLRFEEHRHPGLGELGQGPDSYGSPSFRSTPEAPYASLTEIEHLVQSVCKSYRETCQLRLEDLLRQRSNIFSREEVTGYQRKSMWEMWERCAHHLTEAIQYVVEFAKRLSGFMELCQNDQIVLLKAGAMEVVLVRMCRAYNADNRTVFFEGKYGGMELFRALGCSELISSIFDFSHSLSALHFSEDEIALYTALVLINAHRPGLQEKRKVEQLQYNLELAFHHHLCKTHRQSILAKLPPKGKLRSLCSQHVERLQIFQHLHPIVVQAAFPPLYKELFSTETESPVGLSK

The term Ki denotes the equilibrium dissociation constant of an inhibitor or competing ligand from its target. Turning to `CC(C)[C@H]1c2ncc(C(=O)NCc3cnn(C)c3)cc2CN1Cc1ccc(C(F)(F)F)cc1` [Compound 76], the Ki in test [1] was 100 to 1000 nM.

One may read the IC50 as the concentration that gives 50% inhibition. As to `CCS(=O)(=O)n1cc(CNC(=O)c2cnc3c(c2)CN(Cc2ccc(C(F)(F)F)cc2)[C@H]3C(C)C)cn1` [Compound 133], the Ki in test [1] was under 100 nM. Moreover, the IC50 in test [2] is 100 to 1000 nM. For `CC(C)[C@H]1c2ncc(C(=O)NCc3ccnn3C)cc2CN1Cc1ccc(C(F)(F)F)cc1` [Compound 73], the Ki in test [1] is over 1000 nM.
